Data set [1] can be described thus: Cytotoxicity against human CMEC/D3 cells assessed as increase in cell impedance at 1 uM incubated for 4 hrs by RTCA assay. It is filed as toxicity, cell-based. As to conditions: hcmec/d3, 4 h.
For data set [2], the system named is hCMEC/D3. Put plainly: Cytoprotective activity against TNFalpha-induced cellular damage in human CMEC/D3 cells assessed as increase in cell impedance at 1 uM incubated for 4 hrs by RTCA assay. It is filed as functional, cell-based.
The test system of data set [3] is hCMEC/D3. The experiment in a line: Cytoprotective activity against tBHP-induced oxidative damage in human CMEC/D3 cells at 1 uM incubated for 4 hrs by RTCA assay. The class given is functional, cell-based.
The test system of data set [4] is hCMEC/D3. The experiment in a line: Cytoprotective activity against IL-1beta-induced cellular damage in human CMEC/D3 cells assessed as increase in cell impedance at 1 uM incubated for 4 hrs by RTCA assay. The class given is functional, cell-based.
Data set [5] in a line: Cytotoxicity against human CMEC/D3 cells assessed as decrease in cell impedance at 10 uM incubated for 4 hrs by RTCA assay. The note with it: hcmec/d3, 4 h. It is filed as toxicity, cell-based.

Active and inactive are the calls of the source. No cut-off for these calls is given here.

As for `CC(C)(O)CC[C@@H](O)[C@](C)(O)[C@H]1C[C@H](O)C2=C3C(=O)C(O)=C4C[C@@H](O)[C@@H](O)C[C@]4(C)[C@@]3(O)CC[C@@]21C`, the Activity entry in data set [1] and in data set [5] was “Non-Toxic” each time. Further, the outcome with hCMEC/D3 [2], with hCMEC/D3 [3] and in the data set with hCMEC/D3 [4] was Active.
For `CC(C)(O)CCC(=O)[C@](C)(O)[C@H]1CC(=O)C2=C3C(=O)C(O)=C4C[C@@H](O)[C@@H](O)C[C@]4(C)C3=CC[C@@]21C`, the Activity entry in data set [1] and in data set [5] was “Non-Toxic” in each case. Further, the outcome with hCMEC/D3 [2], in the data set with hCMEC/D3 [3] and in the data set with hCMEC/D3 [4] was Active.
For `CC(C)(O)CC[C@H]1O[C@H]2C(=O)[C@@H]3C4=C(CC[C@]3(C)[C@H]2[C@@]1(C)O)[C@@]1(C)C[C@H](O)[C@H](O)CC1=C(O)C4=O`, the Activity result is “Non-Toxic” in data set [1] and “Toxic” in data set [5]. In addition, the result in the data set on hCMEC/D3 [2], in the data set with hCMEC/D3 [3] and in the data set on hCMEC/D3 [4] was Active.

Values taken from ChEMBL document CHEMBL5257042, “Highly Oxidized Ecdysteroids from a Commercial Cyanotis arachnoidea Root Extract as Potent Blood-Brain Barrier Protective Agents” (J Nat Prod, 2023).
